Data: patent US12091411B2, “IRAK degraders and uses thereof” (Kymera Therapeutics, Inc., priority 2022, dated 2024)
Where two headings read alike, the source gives them in different places.

Molecular target: T1, IRAK4 (Homo sapiens, UniProt Q9NWZ3)
T1 construct: Degradation of IRAK4 in OCI-LY10 was quantitatively measured using Meso Scale Discovery technology; endogenous in cells; host or cells: OCI-LY10
T1 sequence (Q9NWZ3 1-460): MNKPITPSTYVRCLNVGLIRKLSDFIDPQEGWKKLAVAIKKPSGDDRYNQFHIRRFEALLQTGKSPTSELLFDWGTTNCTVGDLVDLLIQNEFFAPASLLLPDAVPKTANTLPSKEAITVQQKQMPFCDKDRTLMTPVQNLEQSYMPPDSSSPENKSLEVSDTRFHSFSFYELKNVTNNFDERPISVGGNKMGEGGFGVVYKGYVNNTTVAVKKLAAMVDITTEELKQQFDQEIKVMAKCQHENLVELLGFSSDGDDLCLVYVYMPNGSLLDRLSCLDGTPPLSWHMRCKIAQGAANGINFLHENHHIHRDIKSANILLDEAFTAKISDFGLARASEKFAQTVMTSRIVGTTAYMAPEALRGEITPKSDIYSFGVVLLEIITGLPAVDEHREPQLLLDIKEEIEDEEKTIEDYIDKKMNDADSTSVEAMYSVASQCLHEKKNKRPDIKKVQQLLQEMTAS
Experiment: IRAK4 MSD Degradation in OCI-LY10
Format: cell-based
Settings: OCI-LY10 cells, MSD
Outline: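 DC50, from a three-parameter logistic fit and reported as letter bins A (<0.01 μM), B, C, D (>0.2 μM or not tested), reflects IRAK4 loss measured by MSD electrochemiluminescence in OCI-LY10 lysates. Treatment: 8 doses, 1:3 steps, top 1 to 10 μM, 4 to 24 h, 37 °C.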

[1] = 4 hrs incubation, read-out: IRAK4 degradation in OCI-LY10 at 4 hrs: DC50
[2] = 24 hrs incubation, read-out: IRAK4 degradation in OCI-LY10 at 24 hrs: DC50

Row | Structure (SMILES) | DC50 [1] [nM] | DC50 [2] [nM]
1 | Cn1c(=O)n(C2CCC(=O)NC2=O)c2cccc(C#CCN3CCN(C[C@H]4CC[C@H](n5cc(NC(=O)c6cnn7ccc(N8CCOC(C)(C)C8)nc67)c(C(F)F)n5)CC4)CC3)c21 (stereo partly drawn) [I-111] | < 10 | > 200
2 | Cc1ccc(-c2nn([C@H]3CC[C@H](CN4CCN(CC#Cc5cccc6c5n(C)c(=O)n6C5CCC(=O)NC5=O)CC4)CC3)cc2NC(=O)c2cnn3cccnc23)nc1 (stereo partly drawn) [I-113] | > 200 | < 10
3 | Cc1ccc(-c2nn([C@H]3CC[C@H](CN4CCN(CC#Cc5cccc6c5n(C)c(=O)n6C5CCC(=O)NC5=O)CC4)CC3)cc2NC(=O)c2cnn3cccnc23)c(F)c1 (stereo partly drawn) [I-116] | > 200 | 10 to 100
4 | Cc1ccc(-c2nn([C@H]3CC[C@H](CN4CCN(CC#Cc5cccc6c5n(C)c(=O)n6C5CCC(=O)NC5=O)CC4)CC3)cc2NC(=O)c2cnn3cccnc23)cc1 (stereo partly drawn) [I-118] | > 200 | 10 to 100
5 | C[C@@H]1CN(CCCc2cccc3c2n(C)c(=O)n3C2CCC(=O)NC2=O)CCN1C[C@H]1CC[C@H](n2cc(NC(=O)c3cnn4ccc(N5C[C@H]6C[C@@H]5CO6)nc34)c(C(F)F)n2)CC1 (stereo partly drawn) [I-119] | > 200 | > 200
6 | C[C@H]1CN(CCCc2cccc3c2n(C)c(=O)n3C2CCC(=O)NC2=O)CCN1C[C@H]1CC[C@H](n2cc(NC(=O)c3cnn4ccc(N5C[C@H]6C[C@@H]5CO6)nc34)c(C(F)F)n2)CC1 (stereo partly drawn) [I-120] | > 200 | > 200
7 | COc1nn([C@H]2CC[C@H](CN3CCN(CC#Cc4cccc5c4n(C)c(=O)n5C4CCC(=O)NC4=O)CC3)CC2)cc1NC(=O)c1cnn2ccc(N3C[C@H]4C[C@@H]3CO4)nc12 (stereo partly drawn) [I-121] | 100 to 200 | > 200
8 | Cc1ccc(-c2nn([C@H]3CC[C@H](CN4CCN(CC#Cc5cccc6c5n(C)c(=O)n6C5CCC(=O)NC5=O)CC4)CC3)cc2NC(=O)c2cnn3cccnc23)nc1 (stereo partly drawn) [I-122] | > 200 | 10 to 100
9 | O=C1CCN(c2cccc(C#CCN3CCN(C[C@H]4CC[C@H](n5cc(NC(=O)c6cnn7ccc(N8C[C@H]9C[C@@H]8CO9)nc67)c(C(F)F)n5)CC4)CC3)c2)C(=O)N1 [I-123] | > 200 | > 200
10 | O=C1CCN(c2ccc(C#CCN3CCN(C[C@H]4CC[C@@H](n5cc(NC(=O)c6cnn7ccc(N8C[C@@H]9C[C@H]8CO9)nc67)c(C(F)F)n5)CC4)CC3)cc2)C(=O)N1 [I-124] | > 200 | > 200
11 | O=C1CCC(c2cccc(C#CCN3CCN(C[C@H]4CC[C@@H](n5cc(NC(=O)c6cnn7ccc(N8C[C@@H]9C[C@H]8CO9)nc67)c(C(F)F)n5)CC4)CC3)c2)C(=O)N1 (stereo partly drawn) [I-125] | > 200 | > 200
12 | O=C1CCC(c2ccc(C#CCN3CCN(C[C@H]4CC[C@@H](n5cc(NC(=O)c6cnn7ccc(N8C[C@@H]9C[C@H]8CO9)nc67)c(C(F)F)n5)CC4)CC3)cc2)C(=O)N1 (stereo partly drawn) [I-126] | > 200 | > 200
13 | Cn1c(=O)n(C2CCC(=O)NC2=O)c2cccc(C#CCO[C@@H]3CCCN(C[C@H]4CC[C@H](n5cc(NC(=O)c6cnn7ccc(N8C[C@H]9C[C@@H]8CO9)nc67)c(C(F)F)n5)CC4)C3)c21 (stereo partly drawn) [I-127] | 100 to 200 | > 200
14 | Cn1c(=O)n(C2CCC(=O)NC2=O)c2cccc(C#CCO[C@H]3CCCN(C[C@H]4CC[C@H](n5cc(NC(=O)c6cnn7ccc(N8C[C@H]9C[C@@H]8CO9)nc67)c(C(F)F)n5)CC4)C3)c21 (stereo partly drawn) [I-128] | 10 to 100 | > 200
15 | CN1C(=O)C(C2CCC(=O)NC2=O)c2cccc(N3CCN(CC4CCC(n5cc6cc(NC(=O)c7cccc(C(F)(F)F)n7)c(S(C)(=N)=O)cc6n5)CC4)CC3)c21 (stereo not drawn) [I-129] | < 10 | > 200
16 | CC(C)(O)c1cc2nn([C@H]3CC[C@H](CN4CCC5(CC4)CC(CCNc4cccc6c4C(=O)N(C4CCC(=O)NC4=O)C6=O)C5)CC3)cc2cc1NC(=O)c1cccc(C(F)(F)F)n1 (stereo partly drawn) [I-130] | > 200 | 10 to 100
17 | COc1cc2nn([C@H]3CC[C@H](CN4CC(c5cccc6c5n(C)c(=O)n6C5CCC(=O)NC5=O)C4)CC3)cc2cc1NC(=O)c1nc(C(C)(C)F)ccc1OC (stereo partly drawn) [I-131] | > 200 | > 200
18 | COc1cc2nn([C@H]3CC[C@H](CN4CC(c5c(OC)ccc6c5n(C)c(=O)n6C5CCC(=O)NC5=O)C4)CC3)cc2cc1NC(=O)c1cccc(C(C)(C)F)n1 (stereo partly drawn) [I-132] | > 200 | > 200

Row | Structure (SMILES) | DC50 [1] [nM] | DC50 [2] [nM]
19 | COc1cc2nn([C@H]3CC[C@H](CN4CC(c5cccc6c5n(C)c(=O)n6C5CCC(=O)NC5=O)C4)CC3)cc2cc1NC(=O)c1cncc(C(C)(C)F)n1 (stereo partly drawn) [I-134] | > 200 | > 200
20 | COc1cc2nn([C@H]3CC[C@H](CN4CC(c5cncc6c5n(C)c(=O)n6C5CCC(=O)NC5=O)C4)CC3)cc2cc1NC(=O)c1cccc(C(C)(C)F)n1 (stereo partly drawn) [I-135] | > 200 | > 200
21 | COc1cc2nn([C@H]3CC[C@H](CN4CC(c5cccc6c5n(C)c(=O)n6C5CCC(=O)NC5=O)C4)CC3)cc2cc1NC(=O)c1nc(C(C)(C)F)ccc1OC (stereo partly drawn) [I-136] | > 200 | –
22 | COc1ccc(C(F)(F)F)nc1C(=O)Nc1cc2cn([C@H]3CC[C@@H](CN4CCC5(CC4)CC(CNc4cccc6c4C(=O)N(C4CCC(=O)NC4=O)C6=O)C5)CC3)nc2cc1C(C)(C)O (stereo partly drawn) [I-137] | > 200 | 10 to 100
23 | COc1cc2nn([C@H]3CC[C@H](CN4CCC5(CC4)CC(Oc4cccc6c4C(=O)N(C4CCC(=O)NC4=O)C6=O)C5)CC3)cc2cc1NC(=O)c1cccc(C(F)(F)F)n1 (stereo partly drawn) [I-138] | > 200 | < 10
24 | CC(C)(O)c1cc2nn([C@H]3CC[C@H](CNCCCCCCCNc4cccc5c4C(=O)N(C4CCC(=O)NC4=O)C5=O)CC3)cc2cc1NC(=O)c1cccc(C(F)(F)F)n1 (stereo partly drawn) [I-139] | > 200 | 10 to 100
25 | COc1cc2nn([C@H]3CC[C@H](CN4CCC5(CC4)CC(Nc4cccc6c4C(=O)N(C4CCC(=O)NC4=O)C6=O)C5)CC3)cc2cc1NC(=O)c1ccccn1 (stereo partly drawn) [I-140] | > 200 | 10 to 100
26 | COc1cc2nn([C@H]3CC[C@H](CN4CCC5(CC4)CC(N(C)c4cccc6c4C(=O)N(C4CCC(=O)NC4=O)C6=O)C5)CC3)cc2cc1NC(=O)c1cccc(C(F)(F)F)n1 (stereo partly drawn) [I-141] | > 200 | 10 to 100
27 | CC(C)(O)c1cc2nn(C3CCC(CNCCCCCNc4cccc5c4C(=O)N(C4CCC(=O)NC4=O)C5=O)CC3)cc2cc1NC(=O)c1cccc(C(F)(F)F)n1 (stereo not drawn) [I-142] | > 200 | < 10
28 | CC(C)(O)c1cc2nn([C@H]3CC[C@H](CNCCCCCCNc4cccc5c4C(=O)N(C4CCC(=O)NC4=O)C5=O)CC3)cc2cc1NC(=O)c1cccc(C(F)(F)F)n1 (stereo partly drawn) [I-143] | > 200 | < 10
29 | CC(C)(O)c1cc2nn([C@H]3CC[C@H](CNCCNc4cccc5c4C(=O)N(C4CCC(=O)NC4=O)C5=O)CC3)cc2cc1NC(=O)c1cccc(C(F)(F)F)n1 (stereo partly drawn) [I-144] | < 10 | < 10
30 | CN(CCCCNc1cccc2c1C(=O)N(C1CCC(=O)NC1=O)C2=O)C[C@H]1CC[C@H](n2cc3cc(NC(=O)c4cccc(C(F)(F)F)n4)c(C(C)(C)O)cc3n2)CC1 (stereo partly drawn) [I-145] | < 10 | < 10
31 | CC(C)(O)c1cc2nn([C@H]3CC[C@H](CNCCCNc4cccc5c4C(=O)N(C4CCC(=O)NC4=O)C5=O)CC3)cc2cc1NC(=O)c1cccc(C(F)(F)F)n1 (stereo partly drawn) [I-146] | > 200 | 10 to 100
32 | COc1cc2nn([C@H]3CC[C@H](CN4CCC5(CC4)CCN(c4cccc6c4n(C)c(=O)n6C4CCC(=O)NC4=O)CC5)CC3)cc2cc1NC(=O)c1cncc(OC(F)(F)F)c1 (stereo partly drawn) [I-147] | 100 to 200 | > 200
33 | COc1cc2nn([C@H]3CC[C@H](CN4CCC5(CC4)CCN(c4cccc6c4n(C)c(=O)n6C4CCC(=O)NC4=O)CC5)CC3)cc2cc1NC(=O)c1cncc(OC(F)F)c1 (stereo partly drawn) [I-148] | 10 to 100 | > 200
34 | COc1cc2nn([C@H]3CC[C@H](CN4CCC5(CC4)CCN(c4cccc6c4n(C)c(=O)n6C4CCC(=O)NC4=O)CC5)CC3)cc2cc1NC(=O)c1cncc(SC)c1 (stereo partly drawn) [I-149] | < 10 | > 200
35 | COc1cc2nn([C@H]3CC[C@H](CN4CCC5(CC4)CCN(c4cccc6c4n(C)c(=O)n6C4CCC(=O)NC4=O)CC5)CC3)cc2cc1NC(=O)c1cncc([S+](C)[O-])c1 (stereo partly drawn) [I-150] | 10 to 100 | > 200
